This note sets out measurements from ChEMBL document CHEMBL5543086, “Discovery of novel NSAID hybrids as cPLA2/COX-2 dual inhibitors alleviating rheumatoid arthritis via inhibiting p38 MAPK pathway” (Eur J Med Chem, 2024).

The source made the active and inactive calls. The rule behind the calls is not given here.

Data set [1] concerns RAW264.7. As to the kind of experiment: Cytotoxicity against LPS-induced mouse RAW264.7 cells assessed as reduction in cell viability at 30 uM pretreated for 1 hr followed by LPS addition and measured after 24 hrs by MTT assay. Format: toxicity, cell-based. The following applies: raw264.7, 25 h. In general terms: Tetrazolium dyes change colour on reduction, which living cells bring about.

Data set [2] concerns RAW264.7. As to the kind of experiment: Antiinflammatory activity in LPS-induced mouse RAW264.7 cells assessed as inhibition of NO production pretreated for 1 hr followed by LPS stimulation and measured after 24 hrs by griess reagent based assay. It is filed as functional, cell-based. For orientation: The Griess reaction detects nitrite, a stable product of nitric oxide.
Data set [3] deals with Rattus norvegicus. As to the kind of experiment: Antiarthritic activity in Freund's complete adjuvant induced Lewis rat model of arthritis assessed as reduction in PGE2 level in serum at 20 mg/kg, po administered every 24 hrs for 28 days post immunization starting from day 8 post immunization by ELISA. It is filed as functional, organism-based. The note with it: time 21.0 day.

Data set [4] concerns Rattus norvegicus. In words: Antiarthritic activity in Freund's complete adjuvant induced Lewis rat model of arthritis assessed as reduction in TNFalpha level in serum at 20 mg/kg, po administered every 24 hrs for 28 days post immunization starting from day 8 post immunization by ELISA. The note with it: time 21.0 day. It is filed as functional, organism-based.
Data set [5] relates to Rattus norvegicus. As to the kind of experiment: Antiarthritic activity in Freund's complete adjuvant induced Lewis rat model of arthritis assessed as reduction in IL-6 level in serum at 20 mg/kg, po administered every 24 hrs for 28 days post immunization starting from day 8 post immunization by ELISA. Format: functional, organism-based. The following applies: time 21.0 day. Background: ELISA stands for enzyme-linked immunosorbent assay.

Data set [6] deals with Rattus norvegicus. As to the kind of experiment: Immunomodulatory activity in Freund's complete adjuvant induced Lewis rat model of arthritis assessed as reduction in IL-17 level in serum at 20 mg/kg, po administered every 24 hrs for 28 days post immunization starting from day 8 post immunization by ELISA. Format: functional, organism-based. The following applies: time 21.0 day.

The subject of data set [7] is Rattus norvegicus. In words: Immunomodulatory activity in Freund's complete adjuvant induced Lewis rat model of arthritis assessed as increase in IL-10 level in serum at 20 mg/kg, po administered every 24 hrs for 28 days post immunization starting from day 8 post immunization by ELISA. Format: functional, organism-based. The note with it: time 21.0 day.
For data set [8], the system named is Rattus norvegicus. As to the kind of experiment: Immunomodulatory activity in Freund's complete adjuvant induced Lewis rat model of arthritis assessed as increase in anti-IL-10 antibody expression in knee joint slices at 20 mg/kg, po administered every 24 hrs for 28 days post immunization starting from day 8 post immunization by immunohistochemistry analysis. It is filed as functional, organism-based. The note with it: time 21.0 day.

For data set [9], the system named is Rattus norvegicus. As to the kind of experiment: Immunomodulatory activity in Freund's complete adjuvant induced Lewis rat model of arthritis assessed as decrease in anti-IL-17 antibody expression in knee joint slices at 20 mg/kg, po administered every 24 hrs for 28 days post immunization starting from day 8 post immunization by immunohistochemistry analysis. Format: functional, organism-based. The note with it: time 21.0 day.

A short description of data set [10]: Toxicity in male Wistar rat assessed as gastrointestinal damage by measuring number of ulcers at 50 mg/kg administered by gavage and measured after 6 hrs (reference value: 0). It is filed as organism-based. The note with it: in vivo, po.
Data set [11] in a line: Toxicity in male Wistar rat assessed as gastrointestinal damage by measuring level-1 ulcers with <1 mm area at 50 mg/kg administered by gavage and measured after 6 hrs. Format: organism-based. The note with it: in vivo, po.
Data set [12] in a line: Toxicity in male Wistar rat assessed as gastrointestinal damage by measuring level-2 ulcers with 1 to 3 mm area at 50 mg/kg administered by gavage and measured after 6 hrs. Format: organism-based. The note with it: in vivo, po.
The nature of data set [13]: Toxicity in male Wistar rat assessed as gastrointestinal damage by measuring level-3 ulcers with >3 mm area at 50 mg/kg administered by gavage and measured after 6 hrs. Format: organism-based. The following applies: in vivo, po.
Data set [14] can be described thus: Toxicity in male Wistar rat assessed as gastrointestinal damage by measuring ulcer index at 50 mg/kg administered by gavage and measured after 6 hrs. Format: organism-based. The note with it: in vivo, po.

What is called IC50 is the concentration that gives 50% inhibition. With `CCCCC/C=C\C/C=C\C/C=C\C/C=C\CC/C=C(/OC(=O)C(C)c1ccc(-c2ccccc2)c(F)c1)C(F)(F)F` (configuration not stated), the Activity entry in the data set with RAW264.7 [1] is “Non-Toxic”. For the same molecule, in the data set with RAW264.7 [2], the IC50 is 7.08 µM.

Consider `CC(C(=O)O)c1cccc(C(=O)c2ccccc2)c1` (configuration not stated) [KETOPROFEN], for which the Activity result in the data set with RAW264.7 [1] is listed as “Non-Toxic”; in [10], 23; in data set [11], 65%; in [12], 30%; in [13], 4%. The IC50 with RAW264.7 [2] is 7.07 µM. The result with Rattus norvegicus [3], in the data set with Rattus norvegicus [4], in the data set on Rattus norvegicus [5], in the data set with Rattus norvegicus [6], in the data set on Rattus norvegicus [7] and in the data set with Rattus norvegicus [8] was Active. Moreover, in the data set on Rattus norvegicus [9], the outcome was Active. In addition, the UI in data set [14] came to 40.

On to `CCCCC/C=C\C/C=C\C/C=C\C/C=C\CC/C=C(/OC(=O)[C@@H](C)c1ccc2cc(OC)ccc2c1)C(F)(F)F`, for which the Activity entry with RAW264.7 [1] was “Non-Toxic”. The IC50 in the data set on RAW264.7 [2] came out at 6.67 µM.

For the molecule `CCCCCCCCCCCC/C=C(/OC(=O)C(C)c1ccc(CC(C)C)cc1)C(F)(F)F` (configuration not stated), the Activity entry in the data set on RAW264.7 [1] is on record as “Non-Toxic”.

Consider `CCCCC/C=C\C/C=C\C/C=C\C/C=C\CCCC(=O)C(F)(F)F` [ARACHIDONYL TRIFLUOROMETHYLKETONE], for which, in the data set with RAW264.7 [1], the Activity entry was “Non-Toxic”.

For the molecule `CCCCCCCC/C=C\CCCCCC/C=C(/OC(=O)C(C)c1ccc(CC(C)C)cc1)C(F)(F)F` (configuration not stated), the Activity result in the data set with RAW264.7 [1] is given as “Non-Toxic”.

On to `CCCCCCCC/C=C(/OC(=O)c1ccccc1OC(C)=O)C(F)(F)F`, for which the Activity result in the data set on RAW264.7 [1] is given as “Non-Toxic”.

As to `CCCCCCCC/C=C\CCCCCCCCCC/C=C(/OC(=O)[C@@H](C)c1ccc2cc(OC)ccc2c1)C(F)(F)F`, the Activity result with RAW264.7 [1] is “Non-Toxic”.

Regarding `C=CCCCCCCC/C=C(/OC(=O)C(C)c1ccc(-c2ccccc2)c(F)c1)C(F)(F)F` (configuration not stated), in the data set on RAW264.7 [1], the Activity result is recorded as “Non-Toxic”.

With `CCCCC/C=C\C/C=C\CCCCCC/C=C(/OC(=O)c1ccccc1OC(C)=O)C(F)(F)F`, the Activity entry in the data set on RAW264.7 [1] was “Non-Toxic”.

Regarding `CCCC/C=C(/OC(=O)C(C)c1ccc(CC(C)C)cc1)C(F)(F)F` (configuration not stated), the Activity entry in the data set on RAW264.7 [1] is “Non-Toxic”.

Consider `CCCCC/C=C\C/C=C\C/C=C\C/C=C\CC/C=C(/OC(=O)c1ccccc1OC(C)=O)C(F)(F)F`, for which, in the data set on RAW264.7 [1], the Activity result is on record as “Non-Toxic”.

Regarding `CCCCCCCCCC/C=C(/OC(=O)C(C)c1ccc(CC(C)C)cc1)C(F)(F)F` (configuration not stated), in the data set with RAW264.7 [1], the Activity entry is “Non-Toxic”.

With `CCCCC/C=C\C/C=C\C/C=C\C/C=C\CC/C=C(/OC(=O)C(C)c1ccc(CC(C)C)cc1)C(F)(F)F` (configuration not stated), the Activity result with RAW264.7 [1] is given as “Non-Toxic”. The IC50 in the data set on RAW264.7 [2] worked out at 4.74 µM.

With `CCCCCCCCCC/C=C(/OC(=O)[C@@H](C)c1ccc2cc(OC)ccc2c1)C(F)(F)F`, in the data set with RAW264.7 [1], the Activity entry is given as “Non-Toxic”.

Consider `CCCCCCCCCCCCCCCCCC/C=C(/OC(=O)C(C)c1ccc(CC(C)C)cc1)C(F)(F)F` (configuration not stated), for which the Activity result with RAW264.7 [1] was “Non-Toxic”.

With `CCCCCCCCCCCCCCCCCC/C=C(/OC(=O)[C@@H](C)c1ccc2cc(OC)ccc2c1)C(F)(F)F`, in the data set with RAW264.7 [1], the Activity result is “Non-Toxic”.

For the molecule `CCCCCCCCCCCCCCCCCC/C=C(/OC(=O)C(C)c1ccc(-c2ccccc2)c(C)c1)C(F)(F)F` (configuration not stated), in the data set on RAW264.7 [1], the Activity result was “Non-Toxic”.

`CCCCCCCCCCCCCCCCCCCC/C=C(/OC(=O)C(C)c1ccc(CC(C)C)cc1)C(F)(F)F` (configuration not stated): the Activity result with RAW264.7 [1] is recorded as “Non-Toxic”.

As for `CCCCCCCCCCCC/C=C(/OC(=O)[C@@H](C)c1ccc2cc(OC)ccc2c1)C(F)(F)F`, the Activity entry in the data set with RAW264.7 [1] is listed as “Non-Toxic”.

Consider `CCCCCCCC/C=C\CCCCCCCCCC/C=C(/OC(=O)C(C)c1ccc(-c2ccccc2)c(F)c1)C(F)(F)F` (configuration not stated), for which, in the data set on RAW264.7 [1], the Activity result was “Non-Toxic”.

In the case of `CCCCCCCCCCCCCCCC/C=C(/OC(=O)C(C)c1ccc(CC(C)C)cc1)C(F)(F)F` (configuration not stated), in the data set on RAW264.7 [1], the Activity entry was “Non-Toxic”.

As to `CCCCC/C=C\C/C=C\CCCCCC/C=C(/OC(=O)[C@@H](C)c1ccc2cc(OC)ccc2c1)C(F)(F)F`, the Activity result with RAW264.7 [1] is “Non-Toxic”.

Turning to `CCCCCCCCCCCCCC/C=C(/OC(=O)[C@@H](C)c1ccc2cc(OC)ccc2c1)C(F)(F)F`, the Activity result in the data set with RAW264.7 [1] was “Non-Toxic”.

For the molecule `CCCCCCC/C=C(/OC(=O)C(C)c1ccc(CC(C)C)cc1)C(F)(F)F` (configuration not stated), the Activity entry in the data set on RAW264.7 [1] was “Non-Toxic”.

On to `CCCCC/C=C\C/C=C\C/C=C\C/C=C\CC/C=C(/OC(=O)Cc1c(C)n(C(=O)c2ccc(Cl)cc2)c2ccc(OC)cc12)C(F)(F)F`, for which, in the data set with RAW264.7 [1], the Activity entry is listed as “Non-Toxic”.

For the molecule `CCCCCCCCCCCCCC/C=C(/OC(=O)c1ccccc1OC(C)=O)C(F)(F)F`, the Activity result in the data set on RAW264.7 [1] was “Non-Toxic”.

On to `CCCCCCCCCC/C=C(/OC(=O)C(C)c1ccc(C(=O)c2ccccc2)cc1)C(F)(F)F` (configuration not stated), for which, in the data set with RAW264.7 [1], the Activity result is on record as “Non-Toxic”.

Take `CCCCC/C=C\C/C=C\CCCCCC/C=C(/OC(=O)C(C)c1ccc(-c2ccccc2)c(F)c1)C(F)(F)F` (configuration not stated): the Activity result in the data set on RAW264.7 [1] is “Non-Toxic”.

Regarding `CCCCC/C=C\C/C=C\CCCCCC/C=C(/OC(=O)C(C)c1ccc(C(=O)c2ccccc2)cc1)C(F)(F)F` (configuration not stated), the Activity entry with RAW264.7 [1] was “Non-Toxic”.

Take `CCCCCCCCCCCCCCCC/C=C(/OC(=O)c1ccccc1OC(C)=O)C(F)(F)F`: the Activity entry in the data set on RAW264.7 [1] is recorded as “Non-Toxic”.
